Test results from patent US11253519B2, “Composition used to improve symptoms of autism spectrum disorder, and method using same for improving symptoms of autism spectrum disorder” (RENASCIENCE CO., LTD., priority 2016, dated 2022).

Columns and labels:
Assay type in all cases: in vivo, human
ASD patient [1] = experiment: PARS-TR rating (items 25 to 57, each 0 none, 1 somewhat noticeable, 2 noticeable) in ASD patients before and after intake
Excerpt: PARS (Pervasive Developmental Disorder Autism Society Japan Rating Scale) is a scale composed of 57 items to determine the characteristics in pervasive developmental disorder (PDD) (which may hereinafter also simply be referred to as “PDD”), and to evaluate the support difficulty by interviewing the mothers of the subjects (or other rearer, if it is difficult to obtain information from the mother of a subject); PARS-TR is its revised version. The revised version contains revised wording of the commentary of question items, while maintaining the reliability and validity of the rating scale of the former PARS. On a side note, question items and rating in PARS-TR, PARS-TR items rated for each age group, a score calculation method, and an ASD characteristics test method are detailed in PARS-TR PARS Text Revision (written and edited by Hattatsu Shogai Shien no tameno Hyoka Kenkyu Kai [Study of the Assessment for Supporting Developmental Disorder], a general incorporated association, Spectrum Publishing Company), the disclosure of which is incorporated herein by reference.
FIG. 3 illustrates 57 rating items prescribed in PARS-TR. The rating items vary depending on the age group of targets for diagnosis (children before school age (early childhood), elementary school students (childhood), and junior high-school students or older subjects (early adolescence or adulthood)). Items 1 to 34 are directed to those in early childhood. Items 1 to 34 are intended to assess the peak in early childhood (assessment for most noticeable symptoms in early childhood) of all subjects (children before school age, elementary school students, and junior high-school students or older subjects), and also to assess the current condition of subjects in early childhood. Peak assessment and current condition assessment are performed for young children because, for example, clear autistic symptoms before the age of 4 years may be alleviated after age 5. Young children are not assessed by items 35 to 57. Elementary school students are assessed by items 1 to 34 for early childhood to determine the peak in early childhood, and items 21 to 53 for childhood to determine the current condition. Junior high-school students or older subjects are assessed by the 34 items for early childhood to determine the peak in early childhood, and items 25 to 57 for early adolescence or adulthood to determine the current condition. The specific evaluation method is described in detail in Example 2.
Assessment by PARS-TR is performed by questioning the mother or someone else regarding the severity of symptoms concerning development and behaviors described in rating items in terms of “assessment of the peak in early childhood” and “assessment of the current condition,” and the answer was classified into the following 3 levels and assessed: “0=none (no symptoms asked were observed/no),” “1=somewhat noticeable (symptoms asked were sometimes (somewhat) observed/yes),” and “2=noticeable (symptoms asked were often (quite) observed/yes).” The PARS-TR score is a value determined by simply summing up the assessment score of each item, excluding items that cannot be assessed. Specifically, the cutoff value at which the subject is diagnosed with PDD is score 9 in early childhood, score 13 in childhood, and score 20 in early adolescence or adulthood.
[…] The total scores were compared.
(§1) The symptoms of ASD of the ASD patient were assessed based on the scores of ABC-J, PARS-TR, and RSB-R (Japanese version) by a medical doctor who is a researcher of ASD.

ASD patient [2] = experiment: RSB-R (Repetitive Behavior Scale-Revised, Japanese version, 43 items, 6 subscales) in ASD patients before and after intake; details: 800 mg/day oral + fursultiamine 25 mg/day, 8 weeks after the intake
Excerpt: RSB-R is composed of 6 subscales (I. Stereotypical Behavior, II. Self-Harming Behavior, III. Obsessive-Compulsive Behavior, IV. Ritualized Behavior, V. Insistence on Sameness, and VI. Circumscribed Interests) and 43 items. RSB-R (Japanese version) is a Japanese version of RBS-R, which is a rating scale used worldwide, and whose validity has already been verified (Inada et al., Research in Autism Spectrum Disorders, Vol. 15-16, July 2015, pp. 60-68; Inada et al., Study on reliability and validity of the Japanese version of Repetitive Behaviors Scale—Revised (RBS-R), The Japanese Journal of Developmental Psychology, 2012, Vol. 23, No. 2, pp. 123-133). FIG. 4 illustrates 43 items of RSB-R (including 6 subscales), and the relation between the 43 items of RSB-R and diagnostic criteria A and B of DSM-5.
as §1
The ASD symptoms of the ASD patient were assessed based on the scores in ABC-J and RSB-R (Japanese version) by a medical doctor who is a researcher of ASD.

[3] = Vitamin B1 level in whole blood, serum pyridoxamine and pyridoxal levels and Wernicke's encephalopathy in two test subjects on pyridoxamine medication
[4] = Plasma kinetics of pyridoxamine and metabolites in healthy male adults (LC-MS-MS)
Excerpt: Rather, in blood, the pyridoxal level was higher than the pyridoxamine level. […] The observation results were obtained in a clinical trial performed by collaborators of the applicant of this application, and are shown here simply for reference.

[5] = case 2, 600 mg/day oral + fursultiamine 25 mg/day, 17 Days After Administration, Before Administration: 0
[6] = case 2, 600 mg/day oral + fursultiamine 25 mg/day, 17 Days After Administration, Before Administration: 1
[7] = case 2, 600 mg/day oral + fursultiamine 25 mg/day, 17 Days After Administration, Before Administration: 2
[8] = case 3, 800 mg/day oral + fursultiamine 25 mg/day, 8 weeks after the intake, before intake: rating 1

Cc1ncc(CO)c(CN)c1O.Cl.Cl [pyridoxamine dihydrochloride]
PARS-TR item 27: Having negative lifestyle habits, and being incapable of living independently (ASD patient [1]; [5]): 0
PARS-TR item 29: Showing extreme pickiness in food, with no extremely narrow range of food choice (ASD patient [1]; [5]): 0
PARS-TR item 31: Being insensitive or sensitive to pain or heat (ASD patient [1]; [5]): 0
PARS-TR item 32: Being terrified of nothing (ASD patient [1]; [5]): 0
PARS-TR item 34: Showing self-harming behaviors, such as hitting the head on the wall or biting the hand (ASD patient [1]; [5]): 0
PARS-TR item 39: Having difficulty understanding what is said from one situation to another (ASD patient [1]; [5]): 0
PARS-TR item 40: Using big words, but not fully understanding the meaning thereof (ASD patient [1]; [5]): 0
PARS-TR item 41: Difficulty understanding who is talking to who in a large group conversation (ASD patient [1]; [5]): 0
PARS-TR item 42: Being incapable of explaining how and why (ASD patient [1]; [5]): 0
PARS-TR item 47: Enacting a familiar scene from a TV show alone (ASD patient [1]; [5]): 0
PARS-TR item 48: Persistently and repeatedly harassing someone on purpose (ASD patient [1]; [5]): 0
PARS-TR item 49: Always wanting to be the best (ASD patient [1]; [5]): 0
PARS-TR item 50: Showing tic symptoms (e.g., blinking, head movements, abuseful language) (ASD patient [1]; [5]): 0
PARS-TR item 51: Being restless in a manner inappropriate for the context (ASD patient [1]; [5]): 0
PARS-TR item 53: Showing behavioral arrest, and becoming incapable of moving to the next act fo frozen (ASD patient [1]; [5]): 0
PARS-TR item 25: Persistently asking the same question (ASD patient [1]; [6]): 0
PARS-TR item 26: Showing confusion when regular daily routine of procedures suddnly change (ASD patient [1]; [6]): 1
PARS-TR item 33: Suddenly crying or becoming upset (ASD patient [1]; [6]): 0
PARS-TR item 36: Showing self-centered behaviors without regard for surrounding people (ASD patient [1]; [6]): 0
PARS-TR item 37: Showing interactive behaviors inappropriate for the context when approached by someone (ASD patient [1]; [6]): 1
PARS-TR item 38: Interacting with others only when having a request (ASD patient [1]; [6]): 0
PARS-TR item 43: Speaking in a unnatural and monotonous tone (ASD patient [1]; [6]): 1
PARS-TR item 44: Having difficulty understanding another person's feeling or point of view (ASD patient [1]; [6]): 0
PARS-TR item 45: Having difficulty understanding jokes and irony, and interpreting them literally (ASD patient [1]; [6]): 1
PARS-TR item 52: Being very careless, unable to behave appropriately for the context (ASD patient [1]; [6]): 0
PARS-TR item 54: Appearing unashamed (ASD patient [1]; [6]): 1
PARS-TR item 55: Being easily deceived (ASD patient [1]; [6]): 1
PARS-TR item 56: Being likely to feel victimized, suspicious, or aggressive (ASD patient [1]; [6]): 0
PARS-TR item 57: Being emotionally unstable, and showing frequent emotional ups and downs (ASD patient [1]; [6]): 0
PARS-TR item 28: Becoming mentally unstable when recalling bad events in the past (ASD patient [1]; [7]): 1
PARS-TR item 30: Being disgusted with a particular sound (ASD patient [1]; [7]): 1
PARS-TR item 46: Being keen on acquiring knowledge in a particular field, such as the names of places or train stations (ASD patient [1]; [7]): 1
PARS-TR Total Score of Items 25 to 57 (ASD patient [1]; case 2, 600 mg/day oral + fursultiamine 25 mg/day, 17 Days After Administration, Before Administration: 22, cutoff 20 or more): 11
severity of hypersensibility (ASD patient [1]; case 3, 800 mg/day oral + fursultiamine 25 mg/day, 8 weeks): lowered the severity of hypersensibility
PARS-TR item 31 rating (insensitive to pain) (ASD patient [1]; [8]): 1
PARS-TR item 32 rating (frightened by wipers, ceiling fan) (ASD patient [1]; [8]): 0
PARS-TR item 30 rating (hyperacusis) (ASD patient [1]; case 3, 800 mg/day oral + fursultiamine 25 mg/day, 8 weeks after the intake, before intake: rating 2): 1
PARS-TR current score in early adolescence or adulthood (ASD patient [1]; case 3, 800 mg/day oral + fursultiamine 25 mg/day, 18 weeks after the intake, before intake: 21, cutoff score 20): 14
RBS-R total score for each subscale compared with before the intake (ASD patient [2]; case 3, 6 subscales, FIG. 8B): significant decrease
RBS-R total score compared with before the intake (ASD patient [2]; case 3, FIG. 8A): significant decrease
total score of all items in RBS-R compared with before the intake (ASD patient [2]; case 4, FIG. 10A): significantly decreased
RBS-R total score of subscale items (Stereotypical Behavior, Self-Harming Behavior, Obsessive-Compulsive Behavior, Insistence on Sameness) (ASD patient [2]; case 4, FIG. 10B): significantly decreased
concentration at 4 weeks ([3]; human, serum, oral, subject ID No. 3, 4 weeks after start of administration): 1540 ng/mL
concentration at 12 weeks ([3]; human, serum, oral, subject ID No. 3, 12 weeks after start, with fursultiamine 75 mg/day): 23.2 ng/mL
concentration at 8 weeks ([3]; human, serum, oral, subject ID No. 6, 8 weeks after start of administration): 421 ng/mL
concentration at 11 weeks ([3]; human, serum, oral, subject ID No. 6, 11 weeks after start, with fursultiamine): 140 ng/mL
brain MRI finding during medication ([3]; subject ID No. 3, 6 weeks after start of administration, epilepsy-like symptom): sign suggestive of Wernicke's encephalopathy
brain MRI finding during medication ([3]; subject ID No. 6, 9 weeks after start of administration): signs suggestive of Wernicke's encephalopathy
plasma levels of pyridoxamine, pyridoxal, and 4-pyridoxic acid versus dose ([4]; 300, 600, 900 mg/dose oral): increased along with the increase in dose
time to peak plasma level of pyridoxamine (unchanged substance) ([4]; 300, 600 or 900 mg/dose oral at 0, 6 and 12 hours, trial by collaborators of the applicant): 3 h
plasma pyridoxine (PN) level ([4]; 300, 600 or 900 mg/dose oral, FIG. 14B): did not show any substantial change
